According to US10287552B2, “Generation of hepatocytes from pluripotent stem cells” (ALBERT EINSTEIN COLLEGE OF MEDICINE, INC., priority 2012, dated 2019):

B1: G-CSF: G-CSF (Amgen Inc.), factor identified in eFHLC-CM (protein, UniProt P09919 31-207, looked up)
Granulocyte …: TPLGPASSLPQSFLLKCLEQVRKIQGDGAALQEKLVSECATYKLCHPEELVLLGHSLGIPWAPLSSCPSQALQLAGCLSQLHSGLFLYQGLLQALEGISPELGPTLDTLQLDVADFATTIWQQMEELGMAPALQPTQGAMPAFASAFQRRAGGVLVASHLQSFLEVSYRVLRHLAQP

Test system: ATMP-tdT Huh-7 cells
Experiment: cis-P toxicity and ATM promoter activity assay
Type: cell-based, human
Conditions: 15 μM cis-P alone

| Molecule | ATM promoter activity |
| --- | --- |
| N.N.[Cl][Pt][Cl] [Cis-P, cis-platinum, reference compound] | increased |

Same assay, conditions: cis-P plus factor, versus cis-P-treated cells

| Molecule | ATM promoter activity | cell viability |
| --- | --- | --- |
| FGF1: growth factor identified in eFHLC-CM | lowered ATM promoter activity | improved cell viability |
| VEGF | ineffective | ineffective |
| IGF1: growth factor identified in eFHLC-CM | lowered ATM promoter activity | improved cell viability |
| FGF2: growth factor identified in eFHLC-CM | lowered ATM promoter activity | improved cell viability |
| B1 | lowered ATM promoter activity | improved cell viability |
